Source: patent US20250163043A1 (TRANSTHERA SCIENCES (NANJING), INC., priority 2021, published 2025)

Biological target: CDK9/CycT1 (Homo sapiens, UniProt P50750)
Experiment: ADP-Glo kinase assay on CDK enzymatic activity, CDK9/CycT1
Type: biochemical
Conditions: 10 concentrations from 10 μM, 4-fold, 60 min room temperature
Source text: Test samples: the compounds of the present invention, having structures shown above.
ADP-Glo Kinase Assay (ADP-Glo kinase kit), DMSO (dimethyl sulfoxide), CDK9/CycT1 (cyclin-dependent kinase 9/cyclin T1), CDK tide (cyclin-dependent kinase substrate peptide fragments), CDK1/CycE1 (cyclin-dependent kinase 1/cyclin E1), CDK2/CycA2 (cyclin-dependent kinase 2/cyclin A2), CDK3/CycE1 (cyclin-dependent kinase 3/cyclin E1), CDK4/CycD3 (cyclin-dependent kinase 4/cyclin D3), CDK5/p25NCK (cyclin-dependent kinase 5/p25), and AZD 4573.
A 384-well white plate, a 96-well plate, a microplate oscillator, a centrifuge, and a microplate reader.
The compounds were dissolved in DMSO and diluted 4-fold in the 96-well plate to obtain stock solutions with 10 concentration gradients, and added into a 384-well plate system to obtain a series of 10 concentration gradients of compound solutions with final concentrations of 10 μM starting and 4-fold gradient decreasing. 1 μM AZD4573 was used as compound positive control (PC) and 0.5% DMSO as solvent vehicle control (VC), ten duplicated wells each for PC and VC.
1 μL of compound solution and 2 μL of 2× kinase solution were transferred to each well, and the plate was centrifuged at 1000 g for 30 s and left at room temperature for 10 min. A mixture of 2× substrate and ATP was prepared in 1× kinase buffer. The reaction was started after adding 2 μL of substrate and ATP into the plate. The plate was centrifuged at 1000 g for 30 s. The assay plate was closed and left at room temperature for 60 min. The reaction system was added with 4 μL of ADP Glo reagent, centrifuged at 1000 rpm for 1 min, and incubated at room temperature for 40 min. The reaction system was added with 8 μL of kinase assay reagent, centrifuged at 1000 rpm for 1 min and incubated at room temperature for 40 min. The […] was read on Biotek.
The inhibition rate was calculated according to the following formula: […]
Lumcmpd: compound fluorescence reading; Lumpositive: average value of the fluorescence reading of positive compound control; Lumvehicle: average value of the fluorescence reading of solvent vehicle control.
IC50 values were fitted using GraphPad 7.0 based on inhibition rates of compounds at different concentrations.

CDK9/CycT1, sequence (P50750 whole entry): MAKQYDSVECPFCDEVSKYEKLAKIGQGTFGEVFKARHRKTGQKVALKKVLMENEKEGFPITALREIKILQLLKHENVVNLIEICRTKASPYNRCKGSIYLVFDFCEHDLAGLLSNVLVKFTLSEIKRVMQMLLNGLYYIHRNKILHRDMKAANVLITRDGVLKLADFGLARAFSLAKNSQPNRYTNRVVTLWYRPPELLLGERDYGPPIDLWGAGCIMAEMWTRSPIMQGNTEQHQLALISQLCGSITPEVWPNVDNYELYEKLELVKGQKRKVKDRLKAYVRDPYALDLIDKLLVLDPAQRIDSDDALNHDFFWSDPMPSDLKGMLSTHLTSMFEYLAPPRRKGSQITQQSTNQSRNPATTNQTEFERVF
CDK9/CycT1, sequence (O60563 whole entry partner): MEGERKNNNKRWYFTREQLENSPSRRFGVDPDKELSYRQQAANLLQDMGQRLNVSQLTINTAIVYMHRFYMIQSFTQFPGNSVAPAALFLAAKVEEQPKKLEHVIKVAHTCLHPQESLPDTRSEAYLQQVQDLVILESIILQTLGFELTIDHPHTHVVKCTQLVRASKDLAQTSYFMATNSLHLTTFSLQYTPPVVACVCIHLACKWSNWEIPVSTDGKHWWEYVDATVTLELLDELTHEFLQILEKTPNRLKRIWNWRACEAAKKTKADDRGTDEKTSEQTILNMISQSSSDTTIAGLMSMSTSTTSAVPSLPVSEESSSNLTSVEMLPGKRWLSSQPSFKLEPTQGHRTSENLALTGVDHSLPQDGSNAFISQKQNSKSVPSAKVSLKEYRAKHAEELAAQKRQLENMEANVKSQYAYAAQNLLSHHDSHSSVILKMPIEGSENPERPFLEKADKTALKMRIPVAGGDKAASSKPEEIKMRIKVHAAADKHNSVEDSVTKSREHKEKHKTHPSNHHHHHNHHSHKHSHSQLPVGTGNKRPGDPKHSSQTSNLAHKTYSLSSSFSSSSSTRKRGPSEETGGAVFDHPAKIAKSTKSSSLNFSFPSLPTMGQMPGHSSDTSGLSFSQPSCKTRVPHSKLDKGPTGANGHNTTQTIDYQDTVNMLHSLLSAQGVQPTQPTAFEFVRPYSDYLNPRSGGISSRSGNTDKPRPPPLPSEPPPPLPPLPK

Row | Structure (SMILES) | IC50 [nM]
1 | CC(C)Nc1nc(C(F)F)c(C#N)c2cnc(N[C@H]3CCCNC3)nc12 [Compound 111, (S)-6-(difluoromethyl)-8-(isopropylamino)-2-(piperidin-3-ylamino)pyrido[3,4-d]pyrimidine-5-carbonitrile] | 69
2 | CC(C)Nc1nc(C#N)cc2cnc(NC3CCS(=O)(=O)CC3)nc12 [Compound 120, 2-((1,1-dioxidotetrahydro-2H-thiopyran-4-yl)amino)-8-(isopropylamino)pyrido[3,4-d]pyrimidine-6-carbonitrile] | 32
3 | CC(C)Nc1nc(C#N)cc2cnc(N[C@@H]3CCNC3=O)nc12 [Compound 124, (R)-8-(isopropylamino)-2-((2-oxopyrrolidin-3-yl)amino)pyrido[3,4-d]pyrimidine-6-carbonitrile] | 26
4 | N#Cc1cc2cnc(N[C@H]3CCCNC3)cc2c(O[C@H]2CCOC2)n1 [Compound 155, 7-(((S)-piperidin-3-yl)amino)-1-(((S)-tetrahydrofuran-3-yl)oxy)-2,6-naphthyridine-3-carbonitrile] | 33
5 | CC(C)Nc1nc(C#N)cc2cnc(N[C@H]3CCCC[C@@H]3O)cc12 [Compound 156, 7-(((1S,2S)-2-hydroxycyclohexyl)amino)-1-(isopropylamino)-2,6-naphthyridine-3-carbonitrile] | 14
6 | CC(C)Nc1nc(C#N)cc2cnc(N[C@@H]3CCCC[C@H]3O)cc12 [Compound 159, 7-(((1R,2R)-2-hydroxycyclohexyl)amino)-1-(isopropylamino)-2,6-naphthyridine-3-carbonitrile] | 22
7 | CC(C)Nc1nc(C#N)cc2cnc(N[C@H]3CCCC[C@H]3O)cc12 [Compound 160, 7-(((1S,2R)-2-hydroxycyclohexyl)amino)-1-(isopropylamino)-2,6-naphthyridine-3-carbonitrile] | 26
8 | CC(C)Nc1nc(C#N)cc2cnc(N[C@@H]3CCCC[C@@H]3O)cc12 [Compound 161, 7-(((1R,2S)-2-hydroxycyclohexyl)amino)-1-(isopropylamino)-2,6-naphthyridine-3-carbonitrile] | 14
9 | CC(C)Nc1nc(C#N)cc2cnc(N[C@@H]3CCC[C@H]3N)cc12 [Compound 165, 7-(((1R,2R)-2-aminocyclopentyl)amino)-1-(isopropylamino)-2,6-naphthyridine-3-carbonitrile] | 47
10 | N#Cc1cc2cnc(N[C@H]3C[C@@H](O)C3)cc2c(N[C@@H]2CCOC2)n1 [Compound 176, 7-(((1s,3S)-3-hydroxycyclobutyl)amino)-1-(((R)-tetrahydrofuran-3-yl)amino)-2,6-naphthyridine-3-carbonitrile] | 3
11 | N#Cc1cc2cnc(N[C@H]3CCCNC3)cc2c(NC2COC2)n1 [Compound 182, (S)-1-(oxetan-3-ylamino)-7-(piperidin-3-ylamino)-2,6-naphthyridine-3-carbonitrile] | 15
12 | CCC(CC)c1nc(C#N)cc2cnc(N[C@H]3CCCNC3)cc12 [Compound 188, (S)-1-(pentan-3-yl)-7-(piperidin-3-ylamino)-2,6-naphthyridine-3-carbonitrile] | 10
13 | CSc1nc(C#N)cc2cnc(N[C@H]3CCCNC3)cc12 [Compound 192, (S)-1-(methylthio)-7-(piperidin-3-ylamino)-2,6-naphthyridine-3-carbonitrile] | 11
14 | CCOc1nc(C#N)cc2cnc(N[C@H]3CCCNC3)cc12 [Compound 198, (S)-1-ethoxy-7-(piperidin-3-ylamino)-2,6-naphthyridine-3-carbonitrile] | 12
15 | N#Cc1cc2cnc(N[C@H]3CCCNC3)cc2c(OC2CCC2)n1 [Compound 199, (S)-1-cyclobutoxy-7-(piperidin-3-ylamino)-2,6-naphthyridine-3-carbonitrile] | 4
16 | CC(C)(C)Nc1nc(C(F)F)cc2cnc(N[C@H]3C[C@@H](N)C3)cc12 [Compound 203, N^7-((1s,3s)-3-aminocyclobutyl)-N^1-(tert-butyl)-3-(difluoromethyl)-2,6-naphthyridine-1,7-diamine] | 1

Row | Structure (SMILES) | IC50 [nM]
17 | CC(C)Nc1nc(C#N)cc2cnc(NC3CCN(CC(=O)N(C)C)CC3)nc12 [Compound C3, 2-(4-((6-cyano-8-(isopropylamino)pyrido[3,4-d]pyrimidin-2-yl)amino)piperidin-1-yl)-N,N-dimethylacetamide] | 27
18 | CC(C)Nc1nc(C#N)cc2cnc(N[C@H]3C[C@](C)(O)C3)nc12 [Compound C11, 2-(((1r,3r)-3-hydroxy-3-methylcyclobutyl)amino)-8-(isopropylamino)pyrido[3,4-d]pyrimidine-6-carbonitrile] | 1
19 | CO[C@H]1C[C@H](Nc2ncc3cc(C#N)nc(NC(C)C)c3n2)C1 [Compound C12, 8-(isopropylamino)-2-(((1r,3r)-3-methoxycyclobutyl)amino)pyrido[3,4-d]pyrimidine-6-carbonitrile] | 2
20 | CC(C)Nc1nc(C#N)cc2cnc(N[C@H]3C[C@@H](CN)C3)nc12 [Compound C17, 2-(((1s,3s)-3-(aminomethyl)cyclobutyl)amino)-8-(isopropylamino)pyrido[3,4-d]pyrimidine-6-carbonitrile] | 2
21 | CC(C)Nc1nc(C#N)cc2cnc(N[C@H]3C[C@H](N4CCOCC4)C3)nc12 [Compound C21, 8-(isopropylamino)-2-(((1r,3r)-3-morpholinocyclobutyl)amino)pyrido[3,4-d]pyrimidine-6-carbonitrile] | 4
22 | CC(=O)N1CCN([C@H]2C[C@H](Nc3ncc4cc(C#N)nc(NC(C)C)c4n3)C2)CC1 [Compound C32, 2-(((1r,3r)-3-(4-acetylpiperazin-1-yl)cyclobutyl)amino)-8-(isopropylamino)pyrido[3,4-d]pyrimidine-6-carbonitrile] | 4
23 | CC(C)(C)Nc1nc(C#N)cc2cnc(N[C@H]3C[C@](C)(N)C3)nc12 [Compound C34, 2-(((1r,3r)-3-amino-3-methylcyclobutyl)amino)-8-(tert-butylamino)pyrido[3,4-d]pyrimidine-6-carbonitrile] | 1
24 | CC(C)Nc1nc(C#N)cc2cnc(N[C@H]3C[C@@]4(CCN4)C3)nc12 [Compound C37, 2-(((4r,6s)-1-azaspiro[3.3]heptan-6-yl)amino)-8-(isopropylamino)pyrido[3,4-d]pyrimidine-6-carbonitrile] | 2
25 | CCNc1nc(C#N)cc2cnc(N[C@H]3C[C@](C)(N)C3)nc12 [Compound C38, 2-(((1r,3r)-3-amino-3-methylcyclobutyl)amino)-8-(ethylamino)pyrido[3,4-d]pyrimidine-6-carbonitrile] | 1
26 | N#Cc1cc2cnc(N[C@H]3C[C@H](N)C3)nc2c(N[C@@H]2CCCOC2)n1 [Compound C39, 2-(((1r,3R)-3-aminocyclobutyl)amino)-8-(((R)-tetrahydro-2H-pyran-3-yl)amino)pyrido[3,4-d]pyrimidine-6-carbonitrile] | 1
27 | CN(C)[C@H]1CC[C@H](Nc2ncc3cc(C#N)nc(N[C@@H]4CCOC4)c3n2)CC1 [Compound C40, 2-(((1r,4R)-4-(dimethylamino)cyclohexyl)amino)-8-(((R)-tetrahydrofuran-3-yl)amino)pyrido[3,4-d]pyrimidine-6-carbonitrile] | 5
28 | COC[C@H](C)Nc1nc(C#N)cc2cnc(N[C@H]3C[C@H](N)C3)nc12 [Compound C42, 2-(((1r,3S)-3-aminocyclobutyl)amino)-8-(((S)-1-methoxypropan-2-yl)amino)pyrido[3,4-d]pyrimidine-6-carbonitrile] | 2
29 | CCNc1nc(C#N)cc2cnc(N[C@H]3C[C@H](NC)C3)nc12 [Compound C43, 8-(ethylamino)-2-(((1r,3r)-3-(methylamino)cyclobutyl)amino)pyrido[3,4-d]pyrimidine-6-carbonitrile] | 1
30 | CC(C)Nc1nc(C#N)cc2cnc(N[C@@H]3CCCNC3)nc12 [Compound C44, (R)-8-(isopropylamino)-2-(piperidin-3-ylamino)pyrido[3,4-d]pyrimidine-6-carbonitrile] | 20
31 | CCOc1nc(C#N)cc2cnc(N[C@H]3C[C@H](N)C3)nc12 [Compound C47, 2-(((1r,3r)-3-aminocyclobutyl)amino)-8-ethoxypyrido[3,4-d]pyrimidine-6-carbonitrile] | 24
32 | CC(C)Oc1nc(C#N)cc2cnc(N[C@H]3CCCNC3)nc12 [Compound C49, (S)-8-isopropoxy-2-(piperidin-3-ylamino)pyrido[3,4-d]pyrimidine-6-carbonitrile] | 20
